This is an account of results in patent US20020111373A1, “Hydrochloride salt of a fused heterocyclic compound” (SANKYO COMPANY, LIMITED, priority 1999, published 2002).

Structures are written as SMILES. Values after ≈ are worked out from the molar mass of the structure shown.

The subject of data set [1] is spontaneously diabetic rats (ZDF/Gmi-fa/fa). Briefly: Blood sugar lowering activity test in spontaneously diabetic rats. It counts as in vivo, rat. As to conditions: for Blood Sugar Level: male ZDF/Gmi-fa/fa rats, average of 6. The protocol: Male spontaneously diabetic rats (ZDF/Gmi-fa/fa) which were 8-10 weeks old were used.
The test compound was suspended in 0.5% CMC solution, and a dose of 0.33 mg/ml/kg was orally administered consecutively for 2 weeks under compulsion. The blood sugar level was measured in a conventional manner. Thus, the tail end (about 1 mm) of rat was cut, and the blood was collected with a hematocrit tube treated with heparin for anti-coagulation and centrifuged. The resultant plasma was measured with Glucoloader F (A&T).

The nature of data set [2]: Solubility experiment in 1st fluid of Japanese Pharmacopeia. As to conditions: 37° C.; for solubility at 1 h: pH 1.2, simulated gastric fluid, thermodynamic from solid, 40 mg in 200 ml 1st fluid of Japanese Pharmacopeia, HPLC, read-out: Solubility 1.0 hour later. It counts as physicochemical. The protocol:
To 200 ml of the 1st fluid of Japanese Pharmacopeia (1000 ml solution made by mixing 2.0 g of sodium chloride with 7.0 ml of hydrochloric acid and water) were added 40 mg of Compound A or Compound B, and the mixture was stirred with a stirrer at 37° C. in a 300 ml conical beaker. One hour later, 10 ml of the sample were filtered through Acrodisk LC13 (PVDF, manufactured by German Science Co.). The initial 3 ml were discarded, and the following 7 ml were taken into a test tube. Of this sample, 5 ml were taken accurately with a whole pipette and added to 2 ml of methanol accurately measured in advance in a test tube.
The quantity was measured by HPLC and the solubility was decided from a calibration curve made according to the following procedure.
The calibration curve was made by preparing a methanolic standard solution of Compound A at a concentration of 400 μg/ml, 100 μg/ml and 20 μg/ml, mixing each 2 ml of the standard solution with 5 ml of the 1st fluid of Japanese Pharmacopeia and determined by HPLC.
Analytical column: L-column ODS (4.6 mm ID×15 cm, manufactured by Chemicals Evaluation Research Institute Japan)
Mobile phase: 0.01 mol/L acetic acid buffer solution (pH 5.0)/acetonitrile mixture (13:7)
Flow rate: about 1.0 ml/min.
Column temperature: 40° C.
Detector: ultraviolet absorptiometer (measuring wavelength: 290 nm)

Setting [3] is: 3 Days, 0.33 mg/ml/kg orally, consecutive dosing.
[4] abbreviates: 7 Days, 0.33 mg/ml/kg orally, consecutive dosing.
The mark [5] stands for this setting: 14 Days, 0.33 mg/ml/kg orally, consecutive dosing.

In the case of `COc1ccc2nc(COc3ccc(CC4SC(=O)NC4=O)cc3)n(C)c2c1.Cl` (stereo not drawn) [Compound A, 5-[4-(6-methoxy-1-methyl-1H-benzimidazol-2-ylmethoxy)benzyl]thiazolidin-2,4-dione hydrochloride], the “Blood Sugar Level” value in data set [1] (0 Hour (baseline)) is 456 mg/dL; in data set [1] (setting [3]), 228 mg/dL; in data set [1] (setting [4]), 206 mg/dL; in data set [1] (setting [5]), 207 mg/dL. The “hypoglycemic activity (comparison in words)” value in data set [1] (from Table 1, ZDF/Gmi-fa/fa rats, 0.33 mg/ml/kg orally for 2 weeks) was “more excellent hypoglycemic activity than Compound B”. In addition, the “solubility (comparison in words)” value in data set [2] (from Table 2, 1st fluid of Japanese Pharmacopeia) is listed as “markedly better solubility than Compound B”. Besides, the solubility at 1 h in data set [2] is 86.4 µg/mL.
As for `COc1ccc2nc(COc3ccc(CC4SC(=O)NC4=O)cc3)n(C)c2c1` (stereo not drawn) [Compound B, 5-[4-(6-methoxy-1-methyl-1H-benzimidazol-2-ylmethoxy)benzyl]-thiazolidin-2,4-dione, reference compound], the “Blood Sugar Level” value in data set [1] (0 Hour (baseline)) amounted to 456 mg/dL; in data set [1] (setting [3]) it was 379 mg/dL; in data set [1] (setting [4]) it was 409 mg/dL; in data set [1] (setting [5]), 535 mg/dL. Moreover, the solubility at 1 h in data set [2] was 41 µg/mL (≈ 103 µM).

As usually defined, the solubility is how much of the substance goes into solution per volume.
